Experimental data taken from patent US8952025B2, “Multifunctional radical quenchers and their uses” (Arizona Board of Regents, A Body Corporate of the State of …, priority 2010, dated 2015).
“Also recorded” adds a separate entry of the source. Read-outs that look alike come from different tables or passages of the source.

Key:
Assay type in all cases: cell-based, human
CEM cells [1] = assay: Reactive oxygen species (ROS) assay, DCFH-DA, DEM-treated cells
CEM leukemia cells = assay: Mitochondrial membrane potential (Δψm) assay, TMRM, FACS; conditions: for preserving mitochondrial membrane potential Δψm: 1, 2.5 or 5 μM
Procedure: Measurement of Mitochondrial Membrane Potential (Δψm)(FACS). For the determination of Δψm, CEM leukemia cells were pre-treated with or without the test compounds. The cells were treated with 5 mM DEM for 120 minutes, collected by centrifugation at 300×g for 3 minutes and then washed twice with phosphate buffered saline. The cells were re-suspended in HSSB buffer and incubated at 37° C. in the dark for 15 minutes with 250 nM TMRM (a cationic dye which accumulates within mitochondria in accordance with the Δψm Nernst potential). Cells were collected by centrifugation at 300×g for 3 minutes and then washed twice with phosphate buffered saline. The samples were analyzed immediately by flow cytometry using 488 nm excitation laser and the FL2-H channel. The results obtained were verified in three independent experiments. The protonophore FCCP (30 μM) was used to dissipate the chemiosmotic proton gradient (ΔμH^+) and served as a control for loss of Δψm. In each analysis, 10,000 events were recorded.

CEM cells [2] = assay: Trypan blue cell viability assay, DEM-treated cells; conditions: for EC50: CEM cells, pre-treatment 2 h, diethylmaleate 3 h, trypan blue exclusion, read-out: EC50 (effective concentration that prevents 50% of cell death); for maintaining cell viability (trypan blue exclusion): overnight incubation, then 5 mM DEM, 3 h
Procedure: Cell viability determined by trypan blue exclusion assay: This technique was used to assess the cytoprotective effects of the invention compounds in cultured cells pharmacologically treated to induce cell death by GSH depletion. DEM was used to deplete cellular GSH and induce oxidative stress. The viability of DEM-treated CEM cells was determined by their ability to exclude the dye trypan blue. Viable cells exclude trypan blue; whereas, non-viable cells take up the dye and stain blue. Briefly, CEM cells were grown in RPMI 1640 medium (GIBCO, Grand island, N.Y., USA) supplemented with 10% fetal calf serum, 2 mM glutamine (HyClone, South Logan, Utah, USA), 1% penicillin-streptomycin mix (Cellgro, Manassan, Va., USA). Cells were seeded at a density of 1×10^6 cells/mL and treated with different concentrations of the invention compounds. Cells were incubated at 37° C. in a humidified atmosphere of 5% CO2 in air for three hours with 5 mM DEM. Cell viability was determined by staining cells with 0.4% trypan blue using a hemacytometer. At least 500 cells were counted for each experimental group. At the time of assay, >95% of DEM-treated cells were trypan blue positive; whereas, in non-DEM treated control cell cultures >95% cells were viable. Cell viability was expressed as the percentage of control. Data are expressed as means±S.E.M (n=3).

[3] = pretreatment 0.5, 1 or 2.5 μM overnight, DEM

Compound	protection against ROS production (DCF fluorescence) (CEM cells [1]; compound 1 μM, 5 mM DEM)	protection against ROS production (DCF fluorescence) (CEM cells [1]; compound 5 μM, 5 mM DEM)	suppression of ROS production (DCF fluorescence) (CEM cells [1]; pretreatment 0.5, 1 or 5 μM, DEM)	maintaining mitochondrial membrane potential Δψm (CEM leukemia cells; [3])	EC50 (CEM cells [2]) [µM]	EC50 (CEM cells [2]; Homo sapiens, CCRF-CEM) [µM]	maintaining cell viability (trypan blue exclusion) (CEM cells [2])	suppression of ROS (DCF fluorescence) (CEM cells [1]; 1 μM, pretreatment 1, 3 or 6 hours, 5 mM DEM)	protection against ROS production (DCF fluorescence) (CEM cells [1]; 5 μM, pretreatment 4 or 24 h)	preserving mitochondrial membrane potential Δψm (CEM leukemia cells; 4-hour pretreatment)	preserving mitochondrial membrane potential Δψm (CEM leukemia cells; 24-hour pretreatment)	maintaining mitochondrial membrane potential Δψm (CEM leukemia cells; FIG. 13, 4 or 24 hours pretreatment)
Cc1nc(N(C)C)nc(CCCCCCCCCCO)c1O [Compound A, 2-N,N-dimethylamino-5-hydroxy-4-methyl-6-(10-hydroxydecyl)-pyrimidine]	complete protection	significantly more effective in blocking diethylmaleate-induced ROS production compared to idebenone or its reduced form (Idebenol); also recorded: protected the cells	more effective than idebenone at all tested concentrations; also recorded: more effective than idebenone in suppressing ROS in a dose-dependent fashion	clearly more effective in maintaining mitochondrial membrane potential; also recorded: very favorable properties	0.202 ± 0.023	0.203 ± 0.023	quite effective in maintaining cell viability following DEM treatment; also recorded: superior to idebenone in maintaining the viability of DEM-treated cells					
Cc1nc2c(c(CC[C@](C)(O)CCC[C@H](C)CCC[C@H](C)CCCC(C)C)c1O)CCN2C [Compound C, 4-((3R,7R,11R)-3-hydroxy-3,7,11,15-tetramethylhexadecyl)-1,6-dimethyl-2,3-dihydro-1H-pyrrolo[2,3-b]pyridine-5-ol]		more effective in protecting glutathione depleted CEM cells than α-tocopherol; also recorded: protected the cells					both effective in maintaining cell viability following treatment with DEM, with compound C being somewhat more effective; also recorded: superiority of compound C	clearly more effective than α-tocopherol in suppressing ROS	better protection against ROS production than α-tocopherol after a 4-hour preincubation	more effective than tocopherol in preserving mitochondrial membrane potential	comparable to tocopherol	superior to tocopherol in maintaining mitochondrial membrane potential
COC1=C(OC)C(=O)C(CCCCCCCCCCO)=C(C)C1=O [idebenone, reference compound]		only limited effect		less effective in this regard		0.765 ± 0.036						
Cc1c(C)c2c(c(C)c1O)CC[C@@](C)(CCC[C@H](C)CCC[C@H](C)CCCC(C)C)O2 [α-tocopherol, reference compound]		ineffective					effective in maintaining cell viability following treatment with DEM					
